Data on 89 sequences can be found in article PMC314469, “Protein Interaction Networks by Proteome Peptide Scanning” (PLoS Biology, 2004).

This assay deals with Myo5 SH3 domain. Briefly: SPOT analysis of cellulose-bound peptides (WISE), Myo5 SH3 domain (Dataset S4). To be noted: for The normalized value in BLU units: Myo5 SH3 domain. It is filed as binding, Saccharomyces cerevisiae.
The mark [1] stands for this setting: SPOT analysis of cellulose-bound peptides probed with Myo5 SH3 domain, normalized value.
Setting [2] is: SPOT analysis of membrane-synthesized peptides probed with Myo5 SH3 domain, normalized value.
Where [3] appears, read: SPOT analysis of membrane-bound peptides, normalized value (see methods).
[4] abbreviates: SPOT analysis of cellulose-bound 14-mer yeast proteome peptides, normalized value, mean where the peptide was synthesized more than once.

As for LPAPPPPPRRGPA, the “The normalized value in BLU units (SPOT analysis, Myo5 SH3)” value under setting [1] is listed as 43350 BLU.

As for EFLRKHSPKAPATG, the “The normalized value in BLU units (SPOT analysis, Myo5 SH3)” value under setting [2] amounted to 412.8 BLU.

Consider DLSLRYAPNLPRVI, for which the “The normalized value in BLU units” value under setting [3] is listed as 249.6 BLU.

For ETKKKWQPLPPEPL, the “The normalized value in BLU units (SPOT analysis, Myo5 SH3)” value under setting [2] turned out to be 255.8 BLU.

For QSEEKEKPKGPMAV, the “The normalized value in BLU units” value under setting [3] amounted to 197.3 BLU.

With KLVLRNVPILPILN, the “The normalized value in BLU units” value under setting [3] was 303.3 BLU.

REFEFIIPVFPVIC: the “The normalized value in BLU units (SPOT analysis, Myo5 SH3)” value under setting [1] was 163.2 BLU.

For LTSVKIVPQRPISD, under setting [4], the “The normalized value in BLU units” value stood at 89.0 BLU.

On to GDEERFLPNRPHYE, for which, under setting [2], the “The normalized value in BLU units (SPOT analysis, Myo5 SH3)” value amounted to 125.8 BLU.

Regarding GHKKKNLPKFPKNK, under setting [2], the “The normalized value in BLU units (SPOT analysis, Myo5 SH3)” value was 789.2 BLU.

Take EYFPREYPKDPVSE: the “The normalized value in BLU units” value under setting [3] is given as 272.2 BLU.

As for ALKSLSNPSSPWQQ, the “The normalized value in BLU units (SPOT analysis, Myo5 SH3)” value under setting [1] was found to be 30.3 BLU.

As to RYPFRMIPELPPKR, the “The normalized value in BLU units (SPOT analysis, Myo5 SH3)” value under setting [2] was 3574.9 BLU.

For GLIAHQGPQFPVMG, under setting [4], the “The normalized value in BLU units” value is 238.5 BLU.

Consider NFPSLIDPHVPTYG, for which the “The normalized value in BLU units” value under setting [4] was found to be 97.4 BLU.

Consider SFVTKYLPAAPVGS, for which, under setting [2], the “The normalized value in BLU units (SPOT analysis, Myo5 SH3)” value is 214.9 BLU.

Consider KVIRKGSPKSPAMV, for which, under setting [3], the “The normalized value in BLU units” value is listed as 495.7 BLU.

GRHLKNIPRIPIFC: the “The normalized value in BLU units (SPOT analysis, Myo5 SH3)” value under setting [2] turned out to be 1042.1 BLU.

Turning to KEFFRLTPNQPVGL, the “The normalized value in BLU units” value under setting [3] amounted to 43.8 BLU.

With WEALKSVPIPPRKN, the “The normalized value in BLU units” value under setting [3] is given as 379.0 BLU.

Consider SPSTHAAPVTPIIS, for which, under setting [1], the “The normalized value in BLU units (SPOT analysis, Myo5 SH3)” value is listed as 53.3 BLU.

KIIKKCSPSVPKEE: the “The normalized value in BLU units” value under setting [3] was 242.5 BLU.

For LIWHKSKPVKPTNK, the “The normalized value in BLU units” value under setting [3] is listed as 353.6 BLU.

On to NAQLRKTPLEPGLE, for which the “The normalized value in BLU units” value under setting [4] is reported as 175.9 BLU.

LVPSKAIPPLPQLD: the “The normalized value in BLU units” value under setting [4] came out at 558.2 BLU.

As to KPLNLSKPISPPPS, the “The normalized value in BLU units” value under setting [4] came out at 254.3 BLU.

As to VCTIRSTPSQPIHC, the “The normalized value in BLU units (SPOT analysis, Myo5 SH3)” value under setting [2] was 244.9 BLU.

Regarding SETARKVPPIPTQI, the “The normalized value in BLU units” value under setting [3] came to 420.1 BLU.

For the sequence LAYERPLPDLPSTI, the “The normalized value in BLU units (SPOT analysis, Myo5 SH3)” value under setting [2] is reported as 131.9 BLU.

For HFLCLDPPIDPNNL, the “The normalized value in BLU units” value under setting [4] turned out to be 122.0 BLU.

Consider LLYLMTYPQQPMVK, for which the “The normalized value in BLU units” value under setting [4] is given as 161.7 BLU.

Take ILFERILPILPVES: the “The normalized value in BLU units” value under setting [4] is given as 339.9 BLU.

For the sequence FLYPYDDPNAPIDE, the “The normalized value in BLU units (SPOT analysis, Myo5 SH3)” value under setting [1] came out at 55.4 BLU.

On to EEQVKCNPNRPIYW, for which the “The normalized value in BLU units” value under setting [3] is 110.0 BLU.

Regarding PPNYKQQPNCPSSN, the “The normalized value in BLU units (SPOT analysis, Myo5 SH3)” value under setting [2] was determined as 147.5 BLU.

For EHLQKERPKPPNKG, the “The normalized value in BLU units” value under setting [3] came out at 363.6 BLU.

With YEGPRGAPGMPEML, the “The normalized value in BLU units” value under setting [3] was 166.5 BLU.

On to VLGVLNVPLPPQTR, for which the “The normalized value in BLU units (SPOT analysis, Myo5 SH3)” value under setting [1] came out at 233.0 BLU.

NTIIKFDPGRPIYN: under setting [3], the “The normalized value in BLU units” value stood at 271.8 BLU.

On to KKNDRPSPLKPIQH, for which, under setting [3], the “The normalized value in BLU units” value is 340.9 BLU.

For the sequence GAPPLPVPNGPAVG, under setting [1], the “The normalized value in BLU units (SPOT analysis, Myo5 SH3)” value is 222.0 BLU.

For the sequence VPPNFNAPPNPMAF, under setting [4], the “The normalized value in BLU units” value turned out to be 1568.9 BLU.

Take KAGSFGAPSSPTSG: under setting [4], the “The normalized value in BLU units” value is 123.7 BLU.

As for VFSLMNCPAYPDVQ, the “The normalized value in BLU units (SPOT analysis, Myo5 SH3)” value under setting [1] is 153.4 BLU.

For the sequence VPGEHFAPMGPNGQ, under setting [4], the “The normalized value in BLU units” value is recorded as 64.7 BLU.

Take SYISRKYPRAPAFI: the “The normalized value in BLU units (SPOT analysis, Myo5 SH3)” value under setting [2] was determined as 740.2 BLU.

As for KPPVYRLPPLPRLK, the “The normalized value in BLU units” value under setting [4] is reported as 2305.8 BLU.

Consider TARNKKSPGGPRQR, for which the “The normalized value in BLU units (SPOT analysis, Myo5 SH3)” value under setting [2] is recorded as 593.2 BLU.

SVSEKTNPSSPSVS: under setting [2], the “The normalized value in BLU units (SPOT analysis, Myo5 SH3)” value amounted to 126.7 BLU.

In the case of SANGKFIPSRPAPK, under setting [3], the “The normalized value in BLU units” value is 6758.2 BLU.

For the sequence VKATKWPPKLPEIQ, under setting [2], the “The normalized value in BLU units (SPOT analysis, Myo5 SH3)” value was determined as 57.4 BLU.

In the case of PPQTHQSPPPPPQQ, the “The normalized value in BLU units (SPOT analysis, Myo5 SH3)” value under setting [1] worked out at 222.2 BLU.

On to TINSRFYPPIPISE, for which the “The normalized value in BLU units (SPOT analysis, Myo5 SH3)” value under setting [2] was found to be 76.4 BLU.

In the case of AELFLRRPIFPGRD, the “The normalized value in BLU units (SPOT analysis, Myo5 SH3)” value under setting [1] is recorded as 215.9 BLU.

Regarding QLRSLFKPFGPILN, the “The normalized value in BLU units” value under setting [4] turned out to be 369.9 BLU.

Consider SAFPYVFPLPPWIP, for which the “The normalized value in BLU units” value under setting [4] was 12966.5 BLU.

With RAGNREPPSTPSTL, the “The normalized value in BLU units” value under setting [3] came to 273.8 BLU.

Consider FHPEKLTPYTPMTG, for which, under setting [2], the “The normalized value in BLU units (SPOT analysis, Myo5 SH3)” value came to 96.5 BLU.

For the sequence MDKFRIPPKSPNIE, the “The normalized value in BLU units (SPOT analysis, Myo5 SH3)” value under setting [2] came to 222.0 BLU.

As to VLTVKMSPSLPDEI, under setting [2], the “The normalized value in BLU units (SPOT analysis, Myo5 SH3)” value is given as 229.5 BLU.

With FYDFRSLPKVPTTQ, under setting [3], the “The normalized value in BLU units” value is 336.7 BLU.

Consider NASAMPAPYMPYYY, for which the “The normalized value in BLU units (SPOT analysis, Myo5 SH3)” value under setting [1] came to 225.5 BLU.

In the case of CLRARNGPVPPVHI, the “The normalized value in BLU units” value under setting [3] is on record as 207.8 BLU.

For the sequence KPPSYPSPAQPPKS, the “The normalized value in BLU units (SPOT analysis, Myo5 SH3)” value under setting [1] was 11899.6 BLU.

Turning to SYMDKIYPDLPNDK, the “The normalized value in BLU units” value under setting [3] is on record as 83.0 BLU.

Consider FGTAKILPEEPSNT, for which the “The normalized value in BLU units (SPOT analysis, Myo5 SH3)” value under setting [2] is on record as 153.4 BLU.

Consider RFHVFCEPILPSVA, for which the “The normalized value in BLU units” value under setting [4] was 158.0 BLU.

LPTGYYEPMKPSSL: under setting [1], the “The normalized value in BLU units (SPOT analysis, Myo5 SH3)” value came to 164.9 BLU.

Regarding TTTYKSRPDRPKPV, the “The normalized value in BLU units” value under setting [3] is 309.3 BLU.

On to LLLPLLLPPLPSVK, for which the “The normalized value in BLU units (SPOT analysis, Myo5 SH3)” value under setting [1] is given as 6465.7 BLU.

YPEKFQKPYNPLAM: the “The normalized value in BLU units” value under setting [4] is listed as 157.4 BLU.

NITEKSPPKSPKHK: the “The normalized value in BLU units” value under setting [3] is recorded as 292.3 BLU.

Consider SVDPKNYPDAPLEG, for which the “The normalized value in BLU units” value under setting [4] is listed as 91.1 BLU.

As to YVNAKLDPSLPSQY, the “The normalized value in BLU units (SPOT analysis, Myo5 SH3)” value under setting [2] is 97.1 BLU.

Consider KLALHQYPNFPSEG, for which, under setting [4], the “The normalized value in BLU units” value is 130.3 BLU.

For the sequence AAPKHAPPPVPNET, the “The normalized value in BLU units (SPOT analysis, Myo5 SH3)” value under setting [1] is 110580.8 BLU.

Regarding LNFKRLLPRDPSEK, under setting [2], the “The normalized value in BLU units (SPOT analysis, Myo5 SH3)” value is 553.7 BLU.

In the case of EAHQHHQPPEPQPY, under setting [1], the “The normalized value in BLU units (SPOT analysis, Myo5 SH3)” value is 0.0 BLU.

Regarding KLAPLNCPSLPTTN, under setting [4], the “The normalized value in BLU units” value was found to be 211.6 BLU.

Take APLLYSCPSEPMAY: the “The normalized value in BLU units” value under setting [4] is listed as 83.1 BLU.

SPKFLNSPDLPERT: under setting [4], the “The normalized value in BLU units” value is 182.8 BLU.

As for TILERLTPLVPNNL, under setting [3], the “The normalized value in BLU units” value is recorded as 249.4 BLU.

With ETTTRETPLPPIPA, under setting [2], the “The normalized value in BLU units (SPOT analysis, Myo5 SH3)” value is 178.3 BLU.

On to QTGSKTVPQAPQAP, for which the “The normalized value in BLU units (SPOT analysis, Myo5 SH3)” value under setting [2] came out at 62.9 BLU.

In the case of DDIIKDHPHIPNGQ, the “The normalized value in BLU units” value under setting [3] came to 57.8 BLU.

Consider ILTLLKMPEVPNSV, for which the “The normalized value in BLU units” value under setting [4] was 172.2 BLU.

Regarding GETRWRIPYLPLDP, the “The normalized value in BLU units (SPOT analysis, Myo5 SH3)” value under setting [1] is 118.4 BLU.

For the sequence FSTKKSKPIRPFVF, the “The normalized value in BLU units (SPOT analysis, Myo5 SH3)” value under setting [2] is 378.5 BLU.

For KLNCLQIPHLPPSV, the “The normalized value in BLU units (SPOT analysis, Myo5 SH3)” value under setting [1] is recorded as 349.8 BLU.
